This note sets out measurements from article PMC9650263, “Synthesis and appraisal of dalbergin-loaded PLGA nanoparticles modified with galactose against hepatocellular carcinoma: In-vitro, pharmacokinetic, and in-silico studies” (Frontiers in Pharmacology, 2022).

The AUC(0-inf) is the area under the concentration-time curve extrapolated to infinity. The term Cmax denotes the peak of the concentration-time curve. By MRT is commonly meant the average time that molecules of a dose stay in the body. Broadly, the Tmax is the time at which the peak concentration occurs. One may read the half-life as how long it takes for the measured level to halve.

In brackets after ≈: the same amount, converted by molar mass.

Series [1] can be described thus: In vitro drug release study. Format: physicochemical. Conditions: up to 48 h, 37°C; media pH 1.2 and 7.4 described, medium of the values not stated. Here is the method: At pH values of 1.2 and 7.4, the drug release perspectives of DLF and DLMF were studied in both simulated gastric and simulated intestinal fluids. A flask was placed in an incubator with a water bath continually swirling (100 rev/min) and kept at a temperature of 37°C. The flask was filled with 10 ml of the appropriate medium and weighed amounts of DLF and DLMF that were sufficient for 10 mg of DL. The dissolving solution in the flask was then routinely replaced with new media at regular intervals, after which 2 ml of the sample was collected for DL detection. The samples were analyzed at 254 nm using a UV-Vis Spectrometer (Labtronics-2910, India), which was utilized to quantify the DL release. Triplicate dissolution tests were carried out. The data was analyzed to determine release kinetics ([Song, X., et al., 2018]; [Kanoujia, J., et al., 2021]; [Song, X., et al., 2019]; [Kumar, P., et al., 2018]).

In a further series the test system is HepG2 cell line. As to the kind of experiment: SRB growth inhibition assay, anticancer efficacy. It counts as cell-based. Conditions: Homo sapiens, HepG2, 48 h, 10-80 μg/ml, read-out: GI50 (growth inhibitory concentration). As for the experimental part: National Cell Repository of NCCS (Pune, India) provided the HepG2 cell line, which was then grown in our cell culture lab for further in vitro assays. The liver cancer cell lines were grown in a T-75 flask for 24 h at 37°C, 5% CO2, and absolute humidity equal to 100% in the Roswell Park Memorial Institute (RPMI)-1640 media with 10% fetal bovine serum and 2 mM L-glutamine. The cells were collected by centrifugation and incubated at a density of 5×10^3 cells/well onto 96 well plates to measure the growth. The test samples were distributed in dimethyl sulfoxide at 100 mg/ml concentration, diluted to 1 mg/ml equivalent drug concentration in distilled H2O. […] After removing the attached dye with 10 mM Trizma base, absorbance was measured at 540 nm using a 690 nm reference. The findings were acquired in triplicate on different plates, and the mean of the three trials was determined. The % cell growth was measured using absorbance data (time zero [Tz], control growth (C), and test growth in the presence of drug at different concentrations [Ti]. The % growth inhibition was calculated using the following formula Ti−Tz/C−Tz×100 for concentrations for which Ti≥Tz […]
It was shown that the quantity of protein formation was reduced by 50% at a medication concentration of […]. […]

A short description of series [2]: Oral pharmacokinetic study, HPLC quantification in plasma. It counts as in vivo, albino Wistar rats. Conditions: rat plasma, DL equivalent 100 mg/kg. As for the experimental part: DL, DLF, and DLMF were administered orally to albino Wistar rats at a dose of DL equivalent to 100 mg/kg (Approval No: IU/IAEC/20/01), and after the first treatment, the blood samples were collected through retro-orbital plexus of the animals at 0.083, 0.25, 0.5, 1, 2, 4, 8, 12, 16, 24, and 48 h. The serum was isolated from the blood by centrifugation for 10 min at 10,000 rpm. The serum samples were kept at -20 °C until quantification by HPLC analysis.
A precise and accurate bioanalytical approach was devised for drug quantification in plasma samples. ACN was used to make 1 mg/ml stock solution of DL, and stock solution in ACN was used to make working standard solutions of 0.02, 0.1, 0.2, 0.5, 1, 2, 5, 10, 50, and 100 μg/ml. Overall, separate tubes containing 100 […] and 100 […] were vortexed for 30 min. The tubes were then spun at 13,000 rpm for 5 min. The supernatant was collected, transferred to fresh tubes, and allowed to dry overnight at a temperature of 40°C. After that, the tubes were reconstituted with 100 μL of ACN, vortexed for 5 minutes, and 20 μL of supernatant was injected into HPLC to quantify DL. The working solution concentrations were 0.01, 0.05, 0.1, 0.25, 0.5, 1, 2.5, 5.0, 25.0, and 50.0 μg/ml. Low-quality control (LQC), medium quality control (MQC), and high-quality control (HQC) samples were created with different quantities of 0.005, 0.5, and 40 μg/ml, respectively. It was necessary to create quality control samples and triplicate calibrations for each concentration. A test tube containing 100 μL of test plasma and 100 μL of ACN was vortexed for 30 min to create the test samples. To assess the final outcomes, WinNonlin version 1.5.3 was used ([Nisha et al., 2020a]; [Kumar, P., et al., 2018]; [Nisha et al., 2020b]).

With `COc1cc2oc(=O)cc(-c3ccccc3)c2cc1O` [DL, 6-hydroxy-7-methoxy-4-phenyl-2H-cromen-2-one], the “cumulative discharge (in vitro release)” value in series [1] is “around 40.97 ± 3.01%”. For the same compound, the GI50 with HepG2 cell line was determined as 20 µg/mL (≈ 74.6 µM). For the same compound, in series [2] (albino Wistar), the AUC(0-inf) turned out to be 244 ± 10.3 µg·h/mL, the Cmax is 23100 ± 840 ng/mL, the MRT was found to be 11.5 ± 1.01 h and the Tmax worked out at 4 h. In addition, in series [2] (albino Wistar), the half-life is 9.63 h. Moreover, in series [2], the AUMC is given as 2806.95 µg.h^2/ml.
